According to patent publication US10806147B2, “Treatment method for a hydrocarbon-containing system using a biocide” (RHODIA OPERATIONS, priority 2011, dated 2020):
Read-outs that look alike come from different tables or passages of the source.

Tested on: sulphate-reducing prokaryotes (SRP)
Procedure: The bioreactor used was constructed from titanium; this construction eliminated the risk of any production of iron sulphides through corrosion, which in turn would react with injected THPS. […] The column was packed with low-iron sand (Fisher, UK) with a glass fibre plug at the base to prevent the draining of sand during filling. The column fittings (injection and production pipework) were constructed from 316 stainless steel (Swagelok).
The column was maintained at 1000 psig (70 barg) and 24° C.±1° C. The pressure was held between the pump head and the proportional release valve. The use of 1-way valves in the injection head permitted disconnection and maintenance of the pump without depressurisation of the column.
The pump used was a high-pressure liquid chromatography pump (PerkinElmer Series 100). The pump was operated in a continuous fashion at an injection rate of 1 mL/min, injecting into the head of the bioreactor.
Injection fluid was prepared daily on workdays, with three days of fluid prepared on Friday to cover the weekend. During the week, a single pump was used on a continuous basis. Over the weekend, three pumps were used, cycling in three hour injection windows. The injection fluid was stored in a polyethylene terephthalate (PET) nitrogen-pressurised vessel at 2° C.±1° C.
The North Sea seawater used throughout the study was collected from Bridlington, Yorkshire on a quarterly basis. It was de-oxygenated through nitrogen sparging over a 48 hour period. Metabolisable carbon was added to the seawater in the form of volatile fatty acids (VFA) in the ratio of 100 acetate:10 propionate:1 butyrate by weight. Acetate and propionate were added as salt in order to avoid acidification of the injection fluid, whilst butyrate was added as the acid. The pH of the injection fluid was between 7.5 and 8 before the addition of THPS. The VFA totalled 111 mg/L, which, if converted entirely to sulphide (i.e. none used for biomass growth), should permit the production of 67 mg/L H2S.
The bioreactor was inoculated using a mixed consortia of prokaryotes obtained from North Sea seawater and North Sea oil reservoirs. Rawwater Engineering Company Limited (RECL) maintained a mixed consortia of sulphate-reducing prokaryotes (SRP) in bioreactors under the experimental conditions required for the project (24° C., 1000 psig). These bioreactors were used solely for inoculation purposes. Both bioreactors increased the chances of successfully inoculating new bioreactors, by limiting the changes in environmental conditions the microbes were subjected to and thus limiting stress. The column was inoculated with microbes, shut-in for a fortnight and operated under batch flow conditions (140 mL fluid per day in equally spaced thirty-minute injection windows) until SRP were known to be established through the production of hydrogen sulphide.
Effluent samples were collected on a daily basis onto zinc acetate. This reacted with the volatile hydrogen sulphide to form stable zinc sulphide precipitate, which permitted analysis at a later time. All samples were analysed within six hours of collection. The samples were analysed through the standard methylene blue colourimetric procedure, which was calibrated monthly against the iodometric sulphide method.
Three trials were conducted: • Trial 1—Starting with a dose of 30 mg/L THPS, the dose concentration of THPS was reduced in 10 mg/L steps until sulphide recovery was observed. […] This indicated the minimum starting concentration of THPS required to convert the SRP from normal activity to biostasis.

“Tetrakis(hydroxymethyl)phosphonium sulphate [THPS]” was tested, and the “period of continued low hydrogen sulphide after removal of THPS, before gradual rise” value (Trial 1, after 86 days total biocide injection, THPS removed entirely) was 25 to 27 days, the “increase in sulphide during dosing” value (Trial 1, dose reduced to 10 mg/L, 14 days) was “no significant increase in sulphide was recorded” and the “biological activity and sulphide production on introduction of THPS” value (Trial 1, pre-soured bioreactor, 30 mg/L active THPS (60 mg/L Tolcide PS50A, incl. penetrant), continuous, 24 °C, 1000 psig) was “collapse in biological activity and sulphide production to sub-mg/L concentrations”. For the same substance, the “biological activity and effluent sulphide on introduction of THPS” value (Trial 2, 30 mg/L THPS plus penetrant, continuous) was “immediate collapse of biological activity and effluent sulphide”, the “effluent sulphide during reduced dosing” value (Trial 2, 20 and 10 mg/L THPS, biocide injected 91 days in total) was “remained suppressed” and the “biostasis of the column” value (Trial 3, 5 mg/L THPS plus penetrant, slow inhibited increase in effluent sulphide) was “insufficient to keep the entire column under biostasis”. The effluent sulphide (Trial 3, dose increased to 20 mg/L THPS) was “the effluent sulphide collapsed and remained low”, the effluent sulphide (Trial 3, dose increased via 10 mg/L to 15 mg/L THPS) was “appeared to stabilise the effluent sulphide” and the “growth of the SRP population” value (Trial 3, sour column, 5 mg/L THPS plus penetrant, continuous) was “rapidly halted the growth of the SRP population”.
